Source: patent publication US20070026433A1, “Epitope testing using soluble HLA” (priority 2001, published 2007)
Read-outs that look alike come from different tables or passages of the source. Ends that are not written are not given here. Peptide text beside a SMILES is read from it. * marks the point of attachment. FITC = O=C1OC2(c3ccc(O)cc3Oc3cc(O)ccc32)c2ccc(NC(=S)*)cc21; 125I = [125I]*

What was measured:
[1] = target: T1, sHLA-A*0201 (Homo sapiens, UniProt P04439, D140Y/D185E/D98H/E176V/E277Q/G131W/G231S/I119V/I121R/I166T/I218V/L300P/L318F/N151K/N90K/P208A/P217A/Q86G/Q94H/R138H/R169H/T345S); type: binding; parameters: contained the leader peptide, as well as the α1, α2, and α3 coding domains of the HLA heavy chain; made in house; β2m from Fitzgerald Industries International; conditions: 10 nM pFITC, sHLA-A*0201 titration
[2] = target: T1, sHLA-A*0201; assay: Multiple specificity screening by FP; type: binding; parameters: contained the leader peptide, as well as the α1, α2, and α3 coding domains of the HLA heavy chain; made in house; β2m from Fitzgerald Industries International; conditions: 10 nM peptide, 100 μg/mL activated sHLA
Method: Multiple Specificity Screening. To determine the specificity for sHLA-A*0201 as well as potential cross-reactivity to other sHLA alleles, 48 different sHLA alleles were screened for binding with the A*0201 pFITC constructs (FIG. 15). For screening purposes, each peptide candidate (10 nM) was incubated with 100 μg/mL activated sHLA, and the peptide/HLA interaction was monitored over time. As expected, no significant binding was detected to any of the B-alleles tested (FIG. 15B), whereas a high binding affinity was observed between sHLA-A*0201 and the pFITC candidates. An exception was pFITC P3 (FIG. 15A). […] The significant decrease in association kinetics recorded after 0.8 h seems to imply that the HLA class I molecule is not stabilized following exposure to this peptide, irrespective of whether it attempted to bind. […] Thus, modification of the residue at the P4 nonanchor position of pFITC P3 may not affect the specificity and association kinetics of peptide binding but rather seems to affect the stability of the class I peptide interaction.

[3] = target: HLA-A*0201 (Homo sapiens, UniProt P04439, D140Y/D185E/D98H/E176V/E277Q/G131W/G231S/I119V/I121R/I166T/I218V/L300P/L318F/N151K/N90K/P208A/P217A/Q86G/Q94H/R138H/R169H/T345S); conditions: cited from earlier work; for IC50: read-out: cell-free systems (^125I) IC50, published values, 125I peptide tracer
[4] = target: T1, sHLA-A*0201; assay: biochemical; type: binding; parameters: contained the leader peptide, as well as the α1, α2, and α3 coding domains of the HLA heavy chain; made in house; β2m from Fitzgerald Industries International
[5] = target: T1, sHLA-A*0201; assay: biochemical; conditions: for kon: read-out: association rate constants kon
[6] = target: T1, sHLA-A*0201; assay: Epitope screening at a threshold concentration of 80 μM (FP competition); conditions: 80 μM peptide, 50 μg/mL sHLA-A*0201, 1 nM P5, β2m 2117 nM
[7] = test system: alleles listed for the B27 supertype; assay: Multiple-specificity screening of FITC-labeled peptides (supertyping, FP); type: binding, human; conditions: 2 nM peptide, 100 μg/ml activated sHLA
From the text: (§1) Multiple-specificity screening of FITC-labeled peptides: To approach the problem of supertype analysis, a novel, state-of-the-art screening assay was developed that utilizes high quality soluble HLA and the technique of fluorescence polarization (FP). This assay combination allows the direct measurement of the ratio between free and bound labeled ligand in solution without any separation steps. The technique of FP is based on the principal that if a fluorescent-labeled peptide binds to the sHLA molecule of higher molecular weight, polarization values will increase due to the slower molecular rotation of the bound probe.
(§2) To elaborate peptide cross-reactivity among MHC class I molecules, a panel of 53 single-specificity sHLA receptors was screened for their binding capacity towards a series of fluorescent-labeled peptide ligands. During the process, each peptide candidate (2 nM) was incubated with 100 μg/ml of activated sHLA and peptide/MHC interaction was monitored over time on the Analyst™ AD Assay Detection System (Molecular Devices; Sunnyvale, Calif.). For optimal signal output, b2-microglobulin was added in 2× molar excess of the used sHLA concentration. For all preparations, 1× BGG/PBS was used as buffer. The use of appropriate controls allowed accurate estimation of specific polarization. […]

[8] = target: T2, A*1102 (Homo sapiens, UniProt P04439, A114D/D185E/E176A/E43K/F33Y/L180Q/S129P/T187R); assay: as above; type: binding; conditions: 2 nM peptide, 100 μg/ml activated sHLA
T2 construct: contained the leader peptide, as well as the α1, α2, and α3 coding domains of the HLA heavy chain; made in house
From the text: as §1, §2

[9] = cited from earlier work
[10] = 50 μg/mL (1059 nM) sHLA-A*0201, β2m 2117 nM, 1 nM FITC-labeled reference peptide P5, read-out: StD comp assay (FP) IC50
[11] = read-out: dissociation rate constants
[12] = read-out: dissociation rate constants koff

With “N L S K L S L D V (NLSKLSLDV; also: FITC label, position not given here; listed as Homo sapiens) [P3]” the “saturation curve / stable complex formation with sHLA-A*0201” value [1] was “not able to form stable complexes with sHLA-A*0201” and the binding [2] was “failed to attain a higher polarization level compared to the other candidates”.

For DLVHFASPL, the IC50 [3] is given as 16.7 µM and the IC50 [4, 10] is given as 366 µM.

In the case of YLLPAIVHI, the IC50 [3] is given as 0.018 µM and the IC50 [4, 10] is given as 0.51 µM.

CSCC[C@H](NC(=O)[C@H](CC(C)C)NC(=O)[C@H](C)N)C(=O)N[C@@H](CC(=O)O)C(=O)N[C@@H](CCCCN)C(=O)N[C@H](C(=O)N[C@@H](CC(C)C)C(=O)N[C@@H](CCCCNC(=S)Nc1ccc2c(c1)C(=O)OC21c2ccc(O)cc2Oc2cc(O)ccc21)C(=O)N[C@H](C(=O)O)C(C)C)C(C)C [P5] gave a kon [5] of 86800 M⁻¹ s⁻¹, a koff [5, 11] of 0.00019 to 0.00043 s⁻¹ and a koff [5, 12] of 0.000188 s⁻¹.

Compound CC(C)C[C@H](N)C(=O)N[C@H](C(=O)N[C@@H](Cc1ccccc1)C(=O)NCC(=O)N[C@@H](CCCCNC(=S)Nc1ccc2c(c1)C(=O)OC21c2ccc(O)cc2Oc2cc(O)ccc21)C(=O)N[C@@H](CCC(=O)O)C(=O)N[C@H](C(=O)N[C@H](C(=O)N[C@@H](CCC(=O)O)C(=O)N[C@H](C(=O)O)C(C)C)C(C)C)C(C)C)C(C)C [P4, L V F G K E V V E V] (H-LVFGK(FITC)EVVEV-OH) has a kon [5] of 9900 M⁻¹ s⁻¹, a koff [5, 11] of 0.00019 to 0.00043 s⁻¹ and a koff [5, 12] of 0.000284 s⁻¹.

KLGEFYNQMM gave an IC50 [4, 10] of 2.82 µM, an IC50 ([4]; IC50 with different pFITC reference peptides) of 2.48 to 10.5 µM and an IC50 ([4]; IC50 within the different tracer systems) of 2.48 to 10.5 µM.

In the case of LVMAPRTVL (listed as Homo sapiens), the “inhibition at 80 μM” value [6] is reported as “minor”.

In the case of “FLPSDY(^125I)FPSV (FLPSDY(125I)FPSV; listed as Homo sapiens) [iodinated molecule of earlier publications (Sette et al., 1994a)]”, the Kd ([3]; Sette et al., 1994a, read-out: affinity of the iodinated molecule in earlier publications) is listed as 0.0155 µM.

For CC[C@H](C)[C@H](NC(=O)[C@H](Cc1c[nH]c2ccccc12)NC(=O)[C@@H](NC(=O)CNC(=O)[C@H](Cc1ccccc1)NC(=O)[C@H](CO)NC(=O)[C@@H](NC(=O)[C@H](CC(C)C)NC(=O)[C@@H](N)Cc1ccc(O)cc1)C(C)C)C(C)C)C(=O)O, the IC50 [3] is given as 0.0019 µM.

With GRAFVTIKK the binding [7] was “did not bind” and the binding capacity [8] was “high A*1102 binding capacity”.

For fluorescein isothiocyanate [FITC], the pKa [9] is given as “approximately 6.5”.
